Assay results from US20250325517A1, “ORAL DOSAGE FORMS OF ELRAGLUSIB” (Actuate Therapeutics, Inc., priority 2022, published 2025).
Where “and” joins values, the source holds several entries; their conditions need not be identical. Equal values may be shown once. Read-outs that look alike come from different tables or passages of the source. Marks after values point to notes of the source that are not given here.

Experiment: Phase 1 crossover PK study: oral solution fed/fasted vs IV infusion in healthy subjects
Format: in vivo, human
Protocol: This pharmacokinetic (PK) study in healthy subjects was conducted to characterize and compare the PK parameters in plasma following a single intravenous (IV) dose of Elraglusib Injection, Elraglusib Oral Solution after fasting, and Elraglusib Oral Solution after a high-fat meal (fed). The study was intended to assess the potential feasibility of an oral formulation of elraglusib based on systemic exposure being within the biologically active range. In clinical studies conducted to date, elraglusib Injection (10 mg/mL) is administered IV once or twice per week over multiple hours, which requires a significant amount of time and resources by both patients and site personnel. […] See Example 3 above.
The route of administration is by IV infusion after diluting elraglusib for injection with 0.9% Sodium Chloride Injection.
It is a clear, red solution, free of visible particulate matter and a low bioburden liquid dosage form that is self-preserving against microbial growth.
Subjects received a single 3.3 mg/kg dose of each of the following in a randomly assigned order separated by a 2-week period.
During the study, the high fat meal was administered over a period of under 30 minutes (in almost all cases, 28 minutes).
Elraglusib Injection (10 mg/mL) administered as an IV infusion over 60 minutes (concentration in mg/mL and infusion rate in mL/kg/hour could vary depending on the subject's body weight).
PK parameters including AUC, Cmax, Tmax, and t1/2 were analyzed by standard non-compartmental analysis (NCA) methods following each of the elraglusib doses. Log transformed Cmax and AUC parameters in subjects having adequate PK data following at least 1 of the oral and IV doses were used to assess the relative bioavailability of the oral dose (fed and/or fasted) compared to the IV dose.
All efforts were made to obtain the PK samples at the scheduled nominal times relative to dosing. PK samples were assayed using validated analytical methods.

[1] = IV infusion 3.3 mg/kg, human plasma

## Cn1cc(C2=C(c3coc4ccc(F)cc34)C(=O)NC2=O)c2cc3c(cc21)OCO3 [elraglusib, 3-(5-fluorobenzofuran-3-yl)-4-(5-methyl-5H-[1,3]dioxolo[4,5-f]indol-7-yl)-1H-pyrrole-2,5-dione]
[1]
  % extrap Arithmetic Mean: 1.146%
  % extrap GMean: 0.7979%
  % extrap Median: 1.04%
  AUC∞/Dose Arithmetic Mean: 33.79 ng·h/mL/mg
  AUC∞/Dose GMean: 32.93 ng·h/mL/mg
  AUC∞/Dose Median: 32.7 ng·h/mL/mg
  Clast Arithmetic Mean: 3.045 ng/mL
  Clast GMean: 2.142 ng/mL
  Clast Median: 2.64 ng/mL
  Cmax/Dose Arithmetic Mean: 6.756 ng/mL/mg
  Cmax/Dose GMean: 6.615 ng/mL/mg
  Cmax/Dose Median: 7.02 ng/mL/mg
  R^2 Arithmetic Mean: 0.9904 #
  R^2 GMean: 0.9903 #
  R^2 Median: 0.9964 #
  λZ Arithmetic Mean: 0.0397 h⁻¹
  λZ GMean: 0.0372 h⁻¹
  λZ Median: 0.0346 h⁻¹
human, fasted state
  oral bioavailability vs IV, geometric means of AUClast or AUC∞: 14-21%
  oral bioavailability vs IV, geometric means of Cmax: 5-11%
human, plasma, 3.3 mg/kg, human, read-out: terminal elimination half-life, rapid clearance subset of subjects
  half-life: 7 to 11 h
human, plasma, iv, 3.3 mg/kg, IV infusion
  clearance: 7.11 mL/min/kg and 519 mL/min
human, plasma, iv, 3.3 mg/kg, IV infusion 3.3 mg/kg, human plasma, read-out: AUC24 Arithmetic Mean
  AUC: 6850 ng·h/mL
human, plasma, iv, 3.3 mg/kg, IV infusion 3.3 mg/kg, human plasma, read-out: AUC24 GMean
  AUC: 6730 ng·h/mL
human, plasma, iv, 3.3 mg/kg, IV infusion 3.3 mg/kg, human plasma, read-out: AUC24 Median
  AUC: 7200 ng·h/mL
human, plasma, iv, 3.3 mg/kg, IV infusion 3.3 mg/kg, human plasma, read-out: AUC48 Arithmetic Mean
  AUC: 7590 ng·h/mL
human, plasma, iv, 3.3 mg/kg, IV infusion 3.3 mg/kg, human plasma, read-out: AUC48 GMean
  AUC: 7450 ng·h/mL
human, plasma, iv, 3.3 mg/kg, IV infusion 3.3 mg/kg, human plasma, read-out: AUC48 Median
  AUC: 7980 ng·h/mL
human, plasma, iv, 3.3 mg/kg, IV infusion 3.3 mg/kg, human plasma, read-out: AUC72 Arithmetic Mean
  AUC: 7840 ng·h/mL
human, plasma, iv, 3.3 mg/kg, IV infusion 3.3 mg/kg, human plasma, read-out: AUC72 GMean
  AUC: 7690 ng·h/mL
human, plasma, iv, 3.3 mg/kg, IV infusion 3.3 mg/kg, human plasma, read-out: AUC72 Median
  AUC: 8190 ng·h/mL
human, plasma, iv, 3.3 mg/kg, IV infusion 3.3 mg/kg, human plasma, read-out: AUC96 Arithmetic Mean
  AUC: 7980 ng·h/mL
human, plasma, iv, 3.3 mg/kg, IV infusion 3.3 mg/kg, human plasma, read-out: AUC96 GMean
  AUC: 7810 ng·h/mL
human, plasma, iv, 3.3 mg/kg, IV infusion 3.3 mg/kg, human plasma, read-out: AUC96 Median
  AUC: 8250 ng·h/mL
human, plasma, iv, 3.3 mg/kg, IV infusion 3.3 mg/kg, human plasma, read-out: AUClast Arithmetic Mean
  AUC(0-t): 7970 ng·h/mL
human, plasma, iv, 3.3 mg/kg, IV infusion 3.3 mg/kg, human plasma, read-out: AUClast GMean
  AUC(0-t): 7810 ng·h/mL
human, plasma, iv, 3.3 mg/kg, IV infusion 3.3 mg/kg, human plasma, read-out: AUClast Median
  AUC(0-t): 8250 ng·h/mL
human, plasma, iv, 3.3 mg/kg, IV infusion 3.3 mg/kg, human plasma, read-out: AUC∞ Arithmetic Mean
  AUC(0-inf): 8070 ng·h/mL
human, plasma, iv, 3.3 mg/kg, IV infusion 3.3 mg/kg, human plasma, read-out: AUC∞ GMean
  AUC(0-inf): 7900 ng·h/mL
human, plasma, iv, 3.3 mg/kg, IV infusion 3.3 mg/kg, human plasma, read-out: AUC∞ Median
  AUC(0-inf): 8260 ng·h/mL
human, plasma, iv, 3.3 mg/kg, IV infusion 3.3 mg/kg, human plasma, read-out: Cmax Arithmetic Mean
  Cmax: 1600 ng/mL
human, plasma, iv, 3.3 mg/kg, IV infusion 3.3 mg/kg, human plasma, read-out: Cmax GMean
  Cmax: 1590 ng/mL
human, plasma, iv, 3.3 mg/kg, IV infusion 3.3 mg/kg, human plasma, read-out: Cmax Median
  Cmax: 1570 ng/mL
human, plasma, iv, 3.3 mg/kg, IV infusion 3.3 mg/kg, human plasma, read-out: Tmax Arithmetic Mean
  Tmax: 1.22 h
human, plasma, iv, 3.3 mg/kg, IV infusion 3.3 mg/kg, human plasma, read-out: Tmax GMean
  Tmax: 1.13 h
human, plasma, iv, 3.3 mg/kg, IV infusion 3.3 mg/kg, human plasma, read-out: Tmax Median
  Tmax: 1.32 h
human, plasma, iv, 3.3 mg/kg, IV infusion 3.3 mg/kg, human plasma, read-out: t1/2 Arithmetic Mean (converted)
  half-life: 19.6 h
human, plasma, iv, 3.3 mg/kg, IV infusion 3.3 mg/kg, human plasma, read-out: t1/2 GMean (converted)
  half-life: 18.6 h
human, plasma, iv, 3.3 mg/kg, IV infusion 3.3 mg/kg, human plasma, read-out: t1/2 Median (converted)
  half-life: 20.1 h
human, plasma, iv, 3.3 mg/kg, IV infusion 3.3 mg/kg, read-out: AUClast LS Means
  AUC(0-t): 7810 ng·h/mL
human, plasma, iv, 3.3 mg/kg, IV infusion 3.3 mg/kg, read-out: AUC∞ LS Means
  AUC(0-inf): 7900 ng·h/mL
human, plasma, iv, 3.3 mg/kg, IV infusion 3.3 mg/kg, read-out: Cmax LS Means
  Cmax: 1590 ng/mL
human, plasma, iv, 3.3 mg/kg, human, 3.3 mg/kg IV infusion, read-out: mean Cmax (arithmetic mean)
  Cmax: 1600 ng/mL
human, plasma, iv, 3.3 mg/kg, human, 3.3 mg/kg IV, read-out: mean AUC∞
  AUC(0-inf): 8070 ng·h/mL
human, plasma, iv, 3.3 mg/kg, human, IV infusion, read-out: volume of distribution
  Vd: 11.2 L/kg and 822 L
human, plasma, other: IV or oral, 3.3 mg/kg, human, read-out: terminal elimination half-life, rapid clearance subset of subjects
  half-life: 6 to 11 h
human, plasma, other: oral solution (fed and fasted) and IV infusion, 3.3 mg/kg, human, all 3 treatments, read-out: terminal elimination half-life, majority of subjects
  half-life: 15 to 25 h
human, plasma, other: oral solution (fed and fasted) and IV infusion, 3.3 mg/kg, human, all three treatments, read-out: mean terminal elimination half-life
  half-life: 16 to 21 h
human, plasma, po, 3.3 mg/kg, human, 3.3 mg/kg oral solution, fasted state, read-out: mean Cmax (arithmetic mean)
  Cmax: 172 ng/mL
human, plasma, po, 3.3 mg/kg, human, 3.3 mg/kg oral solution, fed state, read-out: mean Cmax (arithmetic mean)
  Cmax: 592 ng/mL
human, plasma, po, 3.3 mg/kg, human, 3.3 mg/kg oral, fasted state, read-out: mean AUC∞
  AUC(0-inf): 1810 ng·h/mL
human, plasma, po, 3.3 mg/kg, human, 3.3 mg/kg oral, fed state, read-out: mean AUC∞
  AUC(0-inf): 5000 ng·h/mL
human, plasma, po, 3.3 mg/kg, human, 3.3 mg/kg, fasted state (Cmax and AUC based), read-out: oral bioavailability
  bioavailability: 5 to 21%
human, plasma, po, 3.3 mg/kg, human, 3.3 mg/kg, fed state (Cmax and AUC based), read-out: oral bioavailability
  bioavailability: 19 to 63%
human, plasma, po, 3.3 mg/kg, human, subject 113, oral fed state, read-out: longest terminal half-life (converted)
  half-life: 50.5 h
human, plasma, po, 3.3 mg/kg, human, subject 118, oral fasted state, read-out: shortest half-life (converted)
  half-life: 6.92 h
human, plasma, po, 3.3 mg/kg, human, read-out: relative bioavailability following oral dosing in the fed state, one subject (105)
  bioavailability: 91%
human, plasma, po, 3.3 mg/kg, oral 3.3 mg/kg fasted state, human plasma, read-out: AUC24 Arithmetic Mean
  AUC: 1230 ng·h/mL
human, plasma, po, 3.3 mg/kg, oral 3.3 mg/kg fasted state, human plasma, read-out: AUC24 GMean
  AUC: 1010 ng·h/mL
human, plasma, po, 3.3 mg/kg, oral 3.3 mg/kg fasted state, human plasma, read-out: AUC24 Median
  AUC: 1070 ng·h/mL
human, plasma, po, 3.3 mg/kg, oral 3.3 mg/kg fasted state, human plasma, read-out: AUC48 Arithmetic Mean
  AUC: 1620 ng·h/mL
human, plasma, po, 3.3 mg/kg, oral 3.3 mg/kg fasted state, human plasma, read-out: AUC48 GMean
  AUC: 1340 ng·h/mL
human, plasma, po, 3.3 mg/kg, oral 3.3 mg/kg fasted state, human plasma, read-out: AUC48 Median
  AUC: 1420 ng·h/mL
human, plasma, po, 3.3 mg/kg, oral 3.3 mg/kg fasted state, human plasma, read-out: AUC72 Arithmetic Mean
  AUC: 1740 ng·h/mL
human, plasma, po, 3.3 mg/kg, oral 3.3 mg/kg fasted state, human plasma, read-out: AUC72 GMean
  AUC: 1430 ng·h/mL
human, plasma, po, 3.3 mg/kg, oral 3.3 mg/kg fasted state, human plasma, read-out: AUC72 Median
  AUC: 1530 ng·h/mL
human, plasma, po, 3.3 mg/kg, oral 3.3 mg/kg fasted state, human plasma, read-out: AUC96 Arithmetic Mean
  AUC: 1780 ng·h/mL
human, plasma, po, 3.3 mg/kg, oral 3.3 mg/kg fasted state, human plasma, read-out: AUC96 GMean
  AUC: 1460 ng·h/mL
human, plasma, po, 3.3 mg/kg, oral 3.3 mg/kg fasted state, human plasma, read-out: AUC96 Median
  AUC: 1560 ng·h/mL
human, plasma, po, 3.3 mg/kg, oral 3.3 mg/kg fasted state, human plasma, read-out: AUClast Arithmetic Mean
  AUC(0-t): 1780 ng·h/mL
human, plasma, po, 3.3 mg/kg, oral 3.3 mg/kg fasted state, human plasma, read-out: AUClast GMean
  AUC(0-t): 1460 ng·h/mL
human, plasma, po, 3.3 mg/kg, oral 3.3 mg/kg fasted state, human plasma, read-out: AUClast Median
  AUC(0-t): 1560 ng·h/mL
human, plasma, po, 3.3 mg/kg, oral 3.3 mg/kg fasted state, human plasma, read-out: AUC∞ Arithmetic Mean
  AUC(0-inf): 1810 ng·h/mL
human, plasma, po, 3.3 mg/kg, oral 3.3 mg/kg fasted state, human plasma, read-out: AUC∞ GMean
  AUC(0-inf): 1480 ng·h/mL
human, plasma, po, 3.3 mg/kg, oral 3.3 mg/kg fasted state, human plasma, read-out: AUC∞ Median
  AUC(0-inf): 1590 ng·h/mL
human, plasma, po, 3.3 mg/kg, oral 3.3 mg/kg fasted state, human plasma, read-out: CL Median (converted)
  CL/F: 34.5 mL/min/kg
human, plasma, po, 3.3 mg/kg, oral 3.3 mg/kg fasted state, human plasma, read-out: Cmax Arithmetic Mean
  Cmax: 172 ng/mL
human, plasma, po, 3.3 mg/kg, oral 3.3 mg/kg fasted state, human plasma, read-out: Cmax GMean
  Cmax: 133 ng/mL
human, plasma, po, 3.3 mg/kg, oral 3.3 mg/kg fasted state, human plasma, read-out: Cmax Median
  Cmax: 169 ng/mL
human, plasma, po, 3.3 mg/kg, oral 3.3 mg/kg fasted state, human plasma, read-out: Tmax Arithmetic Mean
  Tmax: 2.7 h
human, plasma, po, 3.3 mg/kg, oral 3.3 mg/kg fasted state, human plasma, read-out: Tmax GMean
  Tmax: 2.42 h
